The values below come from PMC3353181, “A gallotannin-rich fraction from Caesalpinia spinosa (Molina) Kuntze displays cytotoxic activity and raises sensitivity to doxorubicin in a leukemia cell line” (BMC Complementary and Alternative Medicine, 2012).

Data set [1] relates to melanoma cells (RPMI-7951). The arrangement: method as in PMID 1431932. As to conditions: cited from earlier work.
Data set [2] has as its system K562. The data set can be described thus: P2Et adjuvant activity (MTT), K562. It counts as cell-based, human. The settings on record: sub-optimal tested concentrations.
Experimental: P2Et fraction adjuvant activity was assessed using K562 and MCF7 cells in combination with the well-known cancer treatment drugs doxorubicin, vincristine, taxol and camptothecin. Cell viability was evaluated by means of the MTT assay. […] Results are expressed as cell viability percentage relative to the control (100 × Treatment OD/Negative control OD).
K562 (A) or MCF7 (B) cells were treated with the P2Et fraction or ethanol (negative control) for 6 h, washed and treated with doxorubicin (Dx), vincristine (Vt), camptothecin (Ct) or taxol (Tx) at the concentrations shown over a 48 h period. Cell cytotoxicity was estimated using the MTT assay. Data represent three independent experiments. *** (p < 0.001).
Data set [3] deals with gingival fibroblasts. Description: MTT cytotoxicity assay, gingival fibroblasts. It counts as cell-based. The settings on record: Homo sapiens, Fibroblast, normal gingival fibroblasts, concentration ± SE. From the text: (§1) The cell lines used as cancer cells were K562, a human erythroleukemia and MCF7, a human breast adenocarcinoma, from the American Type Culture Collection (ATCC); and the cell lines used as normal cells were human peripheral blood mononuclear cells (PBMC) and human fibroblasts obtained from normal healthy donors after informed consent was given. This project was approved by the ethics committee (founded in 2002) of the Science Faculty at a meeting on August 21, 2007. The culture conditions under which the cell lines were maintained have already been reported.
(§2) The cytotoxic effects of the fractions and conventional chemotherapeutic drugs (doxorubicin, etoposide, vincristine and taxol) were evaluated using normal and tumor cells by means of trypan blue and the methylthiazol tetrazolium (MTT) assay, as previously reported. The P2Et fraction was dissolve in ethanol and the corresponding vehicle was used as a negative control.
(§3) Figure 2 Induction of morphological changes and cytotoxicity in K562 cells by C. spinosa fractions without affecting normal human cells. […] Morphological changes were evaluated by direct observation using a light microscope at a magnification of 40X (B: 1. Ethanol; 2. S2Et; 3. P2Et; and 4. Etoposide). […]
(§4) Additionally, the cytotoxic activity of C. spinosa fractions was evaluated using gingival fibroblasts from the oral mucosa or normal human mononuclear cells. […]

In data set [4] the test system is PBMC. Description: MTT cytotoxicity assay, PBMC. In kind it is cell-based. The settings on record: Homo sapiens, normal PBMC, concentration ± SE.
Text: as §1, §2, §3, §4
For orientation: Tetrazolium assays rely on reduction of a dye to a coloured formazan, in cell work by metabolically active cells.

Data set [5] concerns HL-60 cell line. The arrangement: method as in PMID 10554885. As to conditions: cited from earlier work.

Take `O=C(O[C@H]1[C@H](O)C[C@](O)(C(=O)O)C[C@H]1OC(=O)c1cc(O)c(O)c(O)c1)c1cc(O)c(O)c(O)c1` [4,5-di-O-galloylquinic acid]: in data set [1], the “Cytotoxicity against melanoma cells” value is on record as “moderate cytotoxicity”.
Regarding `COc1cccc2c1C(=O)c1c(O)c3c(c(O)c1C2=O)C[C@@](O)(C(=O)CO)C[C@@H]3O[C@H]1C[C@H](N)[C@H](O)[C@H](C)O1` [Doxorubicin], the “Effect on cell viability, used separately” value in data set [2] is reported as “slight effect”.
Consider `COc1cc([C@@H]2c3cc4c(cc3[C@@H](O[C@@H]3O[C@@H]5CO[C@@H](C)O[C@H]5[C@H](O)[C@H]3O)[C@H]3COC(=O)[C@H]23)OCO4)cc(OC)c1O` [Etoposide], for which the IC50 in data set [3] and in data set [4] was greater than 200 µg/mL throughout.
In the case of `O=C(OC[C@H]1O[C@@H](OC(=O)c2cc(O)c(O)c(O)c2)[C@H](OC(=O)c2cc(O)c(O)c(O)c2)[C@@H](OC(=O)c2cc(O)c(O)c(O)c2)[C@@H]1OC(=O)c1cc(O)c(O)c(O)c1)c1cc(O)c(O)c(O)c1` [PGG, 1,2,3,4,6-penta-O-galloyl-β-D-glucose], the Induction of apoptosis entry in data set [5] is reported as “able to induce caspase-mediated apoptosis”.
